Experimental data as given in patent US12681015B2, “Methods for predicting patient response to DMARDs” (Queen Mary University of London, priority 2019, dated 2026).
“Also recorded” adds a separate entry of the source.

Legend:
[1] = tested on: inflammatory arthritis in wild type (WT) mice; assay: K/BxN serum inflammatory arthritis in wild type mice treated with MTX; format: in vivo
Procedure: (§1) Inflammatory arthritis was initiated in wild type (WT) and Alox15^−/− deficient mice by the administration of arthritogenic serum on days 0 and 2. […] Disease severity was assessed by measuring (A) disease activity using a 26-point clinical score (B) body weight and (C) paw edema. (D) Eight days post disease initiation joints were collected, leukocytes were liberated and the number of infiltrated leukocytes was determined using flow cytometry and fluorescently labelled antibodies. Results for A-C are mean±SEM and for D are percentage of vehicle n=7 mice per group. Results for D are representative of n=8 mice per group. Experiments were conducted on two distinct occasions. * p<0.05 vs Vehicle group for A-C using two-way ANOVA, for D using one-sample t test.
(§2) Inflammatory arthritis was initiated in wild type (WT) and Alox15^−/− mice by injecting K/BxN serum via intraperitoneal injection on days 0 and 2. […] Blood and joints were collected on day 8 and the concentrations of inflammatory eicosanoids in (A) plasma and (B) joints were determined using LC-MS/MS profiling.
(§3) Plasma was obtained from peripheral blood of healthy volunteers, patients and mouse following centrifugation at 1500×g for 10 min at room temperature. Paws were collected and immediately transferred to liquid nitrogen prior to homogenization in 1 ml ice cold MeOH and homogenized using a glass dounce. All samples for LC-MS/MS-based profiling were extracted using solid-phase extraction columns as in Walker, M. E., Souza, P. R., Colas, R. A. & Dalli, J. “13-Series resolvins mediate the leukocyte-platelet actions of atorvastatin and pravastatin in inflammatory arthritis.” FASEB J 31, 3636-3648 (2017), the contents of which are incorporated herein by reference. Prior to sample extraction, deuterated internal standards, representing each region in the chromatographic analysis (500 pg each) were added to facilitate quantification. Samples were kept at −20° C. for a minimum of 45 min to allow protein precipitation. Supernatants were subjected to solid phase extraction, methyl formate fraction collected, brought to dryness and suspended in phase (methanol/water, 1:1, vol/vol) for injection on a Shimadzu LC-20AD HPLC and a Shimadzu SIL-20AC autoinjector, paired with a QTrap 5500 or QTrap 6500 plus (Sciex). An Agilent Poroshell 120 EC-C18 column (100 mm×4.6 mm×2.7 μm) was kept at 50° C. and mediators eluted using a mobile phase consisting of methanol/water/acetic acid of 20:80:0.01 (vol/vol/vol) that was ramped to 50:50:0.01 (vol/vol/vol) over 0.5 min and then to 80:20:0.01 (vol/vol/vol) from 2 min to 11 min, maintained till 14.5 min and then rapidly ramped to 98:2:0.01 (vol/vol/vol) for the next 0.1 min. This was subsequently maintained at 98:2:0.01 (vol/vol/vol) for 5.4 min, and the flow rate was maintained at 0.5 ml/min. QTrap 5500 or QTrap 6500 plus were operated using a multiple reaction monitoring method as in Walker, M. E., Souza, P. R., Colas, R. A. & Dalli, J. “13-Series resolvins mediate the leukocyte-platelet actions of atorvastatin and pravastatin in inflammatory arthritis.” FASEB J 31, 3636-3648 (2017), the contents of which are incorporated herein by reference. […]

[2] = tested on: inflammatory arthritis in Alox15-/- mice; assay: K/BxN serum inflammatory arthritis in Alox15-/- mice treated with MTX; format: in vivo
Procedure: as §1, §2, §3

[3] = MTX 25 mg/kg i.p. days 3, 5 and 7
[4] = Alox15-/- mice, MTX 25 mg/kg i.p. days 3, 5 and 7

Question: How did the paw edema [1, 3] turn out when `CN(Cc1cnc2nc(N)nc(N)c2n1)c1ccc(C(=O)N[C@@H](CCC(=O)O)C(=O)O)cc1` [MTX, Methotrexate] was run?
Answer: decrease

Question: What about the weight loss [1, 3] of the same molecule?
Answer: improvement

Question: And the clinical scores ([1]; MTX 25 mg/kg i.p. days 3, 5 and 7, 26-point score)?
Answer: significant reduction

Question: What about the “number of eosinophils, neutrophils, monocytes and macrophages recruited to the joint” value ([1]; day 8, flow cytometry) of the same molecule?
Answer: decrease

Question: What about the inflammatory eicosanoid concentrations ([1]; plasma and joints, day 8, LC-MS/MS) of the same molecule?
Answer: regulates; also recorded: reduction

Question: And the disease activity [2, 4]?
Answer: no longer regulated

Question: What about the weight loss [2, 4] of the same molecule?
Answer: no longer regulated

Question: What about the “peripheral blood and circulating eicosanoid concentrations” value ([2]; Alox15-/- mice, day 8, LC-MS/MS) of the same molecule?
Answer: lost and no longer regulated

Question: And the leukocyte trafficking ([2]; Alox15-/- mice, day 8, flow cytometry)?
Answer: no longer regulated

Question: What about the “protective actions of MTX” value ([2]; mice lacking the ALOX15 enzyme) of the same molecule?
Answer: lost
